Experimental data reported in patent EP0336356A2, “Derivatives of tryptophan as CCK antagonists” (ABBOTT LABORATORIES, priority 1988, dated 1989).

What was measured:
CCK receptors [1] = target: T1, CCK receptors (Cavia porcellus, UniProt Q63931); assay: [125I]BH-CCK8 radioligand binding, guinea pig pancreatic membranes; details: 37°C for 30 min, read-out: IC₅₀ (nM) [¹²⁵I]-BH-CCK₈ Pancreas
T1 construct: cortex and pancreas were removed and rinsed with ice-cold saline; from tissue; host or cells: guinea pig pancreas membranes
T1 sequence (Q63931 1-430): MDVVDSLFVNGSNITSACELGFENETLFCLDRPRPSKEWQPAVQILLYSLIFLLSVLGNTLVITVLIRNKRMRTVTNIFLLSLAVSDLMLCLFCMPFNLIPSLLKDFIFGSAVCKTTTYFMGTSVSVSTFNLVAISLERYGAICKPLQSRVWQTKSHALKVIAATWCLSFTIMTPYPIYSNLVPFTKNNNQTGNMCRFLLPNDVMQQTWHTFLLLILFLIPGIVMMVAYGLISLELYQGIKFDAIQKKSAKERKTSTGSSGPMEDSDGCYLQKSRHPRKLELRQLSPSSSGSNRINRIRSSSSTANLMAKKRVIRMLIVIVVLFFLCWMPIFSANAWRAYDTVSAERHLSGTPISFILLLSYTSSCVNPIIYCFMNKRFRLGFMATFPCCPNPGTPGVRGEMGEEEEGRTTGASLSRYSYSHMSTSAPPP

CCK receptors [2] = target: T2, CCK receptors (Cavia porcellus, UniProt H0VZC5); assay: [125I]BH-CCK8 radioligand binding, guinea pig cerebral cortical membranes; details: 30°C for 150 min, read-out: IC₅₀ (nM) [¹²⁵I]-BH-CCK₈ Cortex
T2 construct: cortex and pancreas were removed and rinsed with ice-cold saline; from tissue; host or cells: guinea pig cerebral cortex membranes
T2 sequence (H0VZC5 1-426): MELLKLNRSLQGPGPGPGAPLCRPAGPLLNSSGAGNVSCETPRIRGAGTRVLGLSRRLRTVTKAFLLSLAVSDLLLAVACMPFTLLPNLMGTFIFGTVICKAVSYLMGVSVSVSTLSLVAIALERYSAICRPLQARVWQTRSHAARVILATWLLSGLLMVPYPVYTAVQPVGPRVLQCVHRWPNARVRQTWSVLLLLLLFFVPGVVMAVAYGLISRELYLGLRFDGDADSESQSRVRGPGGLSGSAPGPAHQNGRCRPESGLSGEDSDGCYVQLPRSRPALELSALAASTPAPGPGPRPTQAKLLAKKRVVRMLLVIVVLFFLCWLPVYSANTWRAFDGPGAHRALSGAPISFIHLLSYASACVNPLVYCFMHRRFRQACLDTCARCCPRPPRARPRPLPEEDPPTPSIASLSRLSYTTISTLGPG

CCK receptors [3] = target: T1, CCK receptors; assay: Inhibition of CCK8-stimulated amylase release from guinea pig pancreatic acini; assay type: cell-based; details: reference concentration for CCK₈ 3x10⁻¹⁰M, 37°C, 30 min, read-out: IC₅₀ (nM) Inhibition of Amylase Release
Protocol: This assay was performed using the modified protocol of Lin et al., J. Pharmacol Exp. Ther. 236, 729-734, 1986. Guinea pig acini were prepared by the method of Bruzzone et al. (Biochem. J. 226, 621-624, 1985) as follows. Pancreas was dissected out and connective tissues and blood vessels were removed. […] The composition of the KRH buffer was: HEPES, 12.5 mM: NaCl, 118 mM; […] CaCl₂, 1 mM; KH₂PO₄, 1.2 mM; MgSO₄, 1.2 mM; NaHCO₃, 5 mM; glucose, 10 mM, pH 7.4. The buffer was supplemented with 1% MEM vitamins, 1% MEM amino acids and 0.001% aprotinin. The tube was shaken by hand until the suspension appeared homogeneous, usually 5 to 6 min. 5 mL of the KRH, without collagenase and with 0.1% BSA, were added and the tube was centrifuged at 50 x g for 35 sec. The supernatant was discarded and 6 mL of the KRH were added to the cell pellet. […] This wash procedure was repeated once. The cell pellet from the last centrifugation step was then resuspended in 15 mL of KRH containing 0.1% BSA. The contents were filtered through a dual nylon mesh, size 275 and 75 um. The filtrate, containing the acini, were centrifuged at 50 x g for 3 min. The acini were then resuspended in 5 mL of KRH-BSA buffer for 30 min at 37°C, under 100% O₂, with a change of fresh buffer at 15 min. After the 30 min incubation time, the acini were resuspended in 100 volumes of KRH-BSA buffer, containing 3 uM phosphoramidon and 100 µM bestatin. […] The final assay volume was 500 uL. Tubes were vortexed and placed in a 37°C waterbath, under 100% O₂, for 30 min. Afterward, tubes were centrifuged at 10,000 g for 1 min. Amylase activity in the supernatant and the cell pellet were separately determined after appropriate dilutions in 0.1% Triton X-100, 10 mM NaH₂PO₄, pH 7.4 by Abbott Amylase A-gent test using the Abbott Bichromatic Analyzer 200. […]

CCK receptors [4] = assay: Antagonism of CCK mediated behavioral effect in mice (reversal of CCK-induced inactivity); assay type: in vivo; details: minimally effective dose, ICV, coadministered with CCK₈ 3 nmol, male Swiss CD-1 mice, statistically significant reversal of CCK-induced inactivity
Text: Male Swiss CD-1 mice (Charles River) (22-27 g) were provided with ample food (Purina Lab (show) and water until the time of their injection with the test compound.
ICV injections were given by a free-hand method similar to that previously described (Haley, and McCormick, Br. J. Pharmacol. Chemother. 12 12-15 (1957)). The animals were placed on a slightly elevated metal grid and restrained by the thumb and forefinger at the level of the shoulders, thus immobilizing their heads. Injections were made with a 30 gauge needle with a "stop" consisting of a piece of tygon tubing to limit penetration of the needle to about 4.5 mm below the surface of the skin. The needle was inserted perpendicular to the skull at a midline point equidistant from thje eye and an equal distance posterior from the level of the eyes such that the injection site and the two eyes form an equilateral triangle. The injection volme (5 ul) was expelled smoothly over a period of approximately 1 second. […]
For the behavioral observations, the mice were placed in clear plastic cages. Each cage measured 19 x 26 x 15 centimeters and contained a 60-tube polypropylene test tube rack (NALGENE #5970-0020) placed on end in the center of the cage to enhance exploratory activity. […] Differences among groups were analyzed by Newman-Kewels analysis and a probability level of p<0.05 was accepted as significant. […]

| SMILES | IC50 (CCK receptors [1]) [nM] | IC50 (CCK receptors [2]) [nM] | IC50 (CCK receptors [3]) [nM] | MED (CCK receptors [4]) [nmol] |
| --- | --- | --- | --- | --- |
| CCCCCN(CCCCC)C(=O)[C@@H](Cc1c[nH]c2ccccc12)NC(=O)c1cnc2ccccc2c1 [Example 21, N-(3′-Quinolylcarbonyl)-R-Tryptophan-di-n-pentylamide] | 14 | 15000 | 42 | 0.3 |
| CCOC(=O)CN(Cc1ccccc1)C(=O)[C@@H](Cc1c[nH]c2ccccc12)NC(=O)c1cnc2ccccc2c1 [Example 29, Ethyl N-(3′-Quinolylcarbonyl)-R-Tryptophyl-(N-benzyl)Glycinate] | 88 | 9200 | < 10000 |  |
| COC(=O)[C@H](NC(=O)C(Cc1c[nH]c2ccccc12)NC(=O)c1cnc2ccccc2c1)c1ccccc1 (stereo partly shown) [Example 31, Methyl N-(3′-Quinolylcarbonyl)-Tryptophyl-R-Phenylglycinate] | 300 | > 10000 | < 100000 |  |
| COC(=O)[C@@H](NC(=O)C(Cc1c[nH]c2ccccc12)NC(=O)c1cnc2ccccc2c1)c1ccccc1 (stereo partly shown) [Example 32, Methyl N-(3′-Quinolylcarbonyl)-Tryptophyl-S-Phenylglycinate] | 120 | > 10000 | < 30000 |  |
| O=C(NC(Cc1c[nH]c2ccccc12)C(=O)N1CCC2CCCCC2C1)c1cnc2ccccc2c1 (stereo not shown) [Example 40, N-(3′-Quinolylcarbonyl)-Tryptophan-perhydroisoquinolylamide] | 1000 | 10000 | < 100000 |  |
| CCCCCN(CCCCC)C(=O)[C@H](Cc1c[nH]c2ccccc12)NC(=O)c1cnc2ccccc2c1 [Example 100, N-(3′-Quinolylcarbonyl)-S-Tryptophan-di-n-pentylamide] | 670 | 6300 | < 100000 |  |

The next lines start with results.

| IC50 (CCK receptors [1]) [nM] | IC50 (CCK receptors [2]) [nM] | IC50 (CCK receptors [3]) [nM] | SMILES | MED (CCK receptors [4]) [nmol] |
| --- | --- | --- | --- | --- |
| 530 | 10000 | < 30000 | CN(Cc1ccccc1)C(=O)C(Cc1c[nH]c2ccccc12)NC(=O)c1cnc2ccccc2c1 (stereo not shown) [Example 33, N-(3′-Quinolylcarbonyl)-Tryptophan-(N-methyl,N-benzyl)amide] |  |
| 380 | > 10000 | < 10000 | C[C@H](NC(=O)[C@@H](Cc1c[nH]c2ccccc12)NC(=O)c1cnc2ccccc2c1)c1ccccc1 [Example 36, N-(3′-Quinolylcarbonyl)-R-Tryptophan-(1′,S-phenylethyl)amide] |  |
| 110 | > 10000 | < 10000 | C[C@@H](NC(=O)[C@@H](Cc1c[nH]c2ccccc12)NC(=O)c1cnc2ccccc2c1)c1ccccc1 [Example 39, N-(3′-Quinolylcarbonyl)-R-Tryptophan-(1′,R-phenylethyl)amide] |  |
